# Positions count from the first letter of the chain named.
# Assays:
# [1] = target: T1, human OCT2 (Homo sapiens, UniProt O15244, S270A); assay: ASP+ uptake inhibition in HEK293 cells stably expressing OCT2; conditions: for inhibition of OCT2 mediated transport: ASP+ 5 µM; for inhibition of renal OCT2 and MATE1 compared to hepatic OCT1: concentration-dependent inhibition, Figure 4C
# T1 sequence (O15244 1-555 S270A): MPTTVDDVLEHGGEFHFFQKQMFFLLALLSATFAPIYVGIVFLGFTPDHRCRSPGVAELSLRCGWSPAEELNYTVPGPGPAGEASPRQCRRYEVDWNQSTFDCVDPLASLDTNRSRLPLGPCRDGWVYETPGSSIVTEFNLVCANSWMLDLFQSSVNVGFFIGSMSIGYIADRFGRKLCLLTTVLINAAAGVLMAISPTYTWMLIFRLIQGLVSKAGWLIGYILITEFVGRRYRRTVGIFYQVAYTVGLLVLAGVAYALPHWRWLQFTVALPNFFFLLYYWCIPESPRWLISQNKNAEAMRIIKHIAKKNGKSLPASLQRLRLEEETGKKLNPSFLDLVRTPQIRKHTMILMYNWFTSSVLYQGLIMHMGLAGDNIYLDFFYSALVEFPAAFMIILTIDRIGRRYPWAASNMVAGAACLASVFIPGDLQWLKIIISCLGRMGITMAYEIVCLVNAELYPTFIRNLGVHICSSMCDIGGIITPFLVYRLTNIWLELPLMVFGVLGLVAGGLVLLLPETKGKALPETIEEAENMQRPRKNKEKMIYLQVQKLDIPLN
# [2] = target: T2, OCT2-A270S (Homo sapiens, UniProt O15244); assay: ASP+ uptake inhibition in HEK293 cells stably expressing OCT2-A270S; type: cell-based; conditions: for affinity towards OCT2-A270S compared to reference protein: concentration-dependent inhibition, Figure 4C
# T2 sequence (O15244 1-555): T1 sequence (O15244 1-555 S270A) with A270S
# [3] = target: T3, MATE1 (Homo sapiens, UniProt Q96FL8); assay: ASP+ uptake inhibition in HEK293 cells stably expressing MATE1; type: cell-based; conditions: for inhibition potency for MATE1 versus other transporters of the panel: concentration-dependent inhibition, Figure 4C
# T3 sequence (Q96FL8 1-570): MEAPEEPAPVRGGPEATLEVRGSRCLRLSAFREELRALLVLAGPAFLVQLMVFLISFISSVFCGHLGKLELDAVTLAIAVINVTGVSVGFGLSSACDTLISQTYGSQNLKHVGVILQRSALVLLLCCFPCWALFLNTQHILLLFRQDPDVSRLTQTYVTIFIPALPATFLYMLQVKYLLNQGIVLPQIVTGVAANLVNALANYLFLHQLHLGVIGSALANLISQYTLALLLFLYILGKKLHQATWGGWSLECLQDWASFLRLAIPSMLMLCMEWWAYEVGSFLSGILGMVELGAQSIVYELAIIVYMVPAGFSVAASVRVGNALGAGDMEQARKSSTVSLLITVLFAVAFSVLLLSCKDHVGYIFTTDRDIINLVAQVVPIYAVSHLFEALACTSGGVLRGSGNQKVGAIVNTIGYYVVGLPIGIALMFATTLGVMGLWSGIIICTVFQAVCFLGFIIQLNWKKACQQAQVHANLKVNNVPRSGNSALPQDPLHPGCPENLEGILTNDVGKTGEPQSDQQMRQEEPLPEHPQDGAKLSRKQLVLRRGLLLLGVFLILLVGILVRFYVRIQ
# [4] = collected from the literature; cited from earlier work
# [5] = target: MATE2-K (Homo sapiens, UniProt Q86VL8); assay: ASP+ uptake inhibition in HEK293 cells stably expressing MATE2-K; type: cell-based
# Sequence of MATE2-K (Q86VL8 1-566 isoform Q86VL8-3): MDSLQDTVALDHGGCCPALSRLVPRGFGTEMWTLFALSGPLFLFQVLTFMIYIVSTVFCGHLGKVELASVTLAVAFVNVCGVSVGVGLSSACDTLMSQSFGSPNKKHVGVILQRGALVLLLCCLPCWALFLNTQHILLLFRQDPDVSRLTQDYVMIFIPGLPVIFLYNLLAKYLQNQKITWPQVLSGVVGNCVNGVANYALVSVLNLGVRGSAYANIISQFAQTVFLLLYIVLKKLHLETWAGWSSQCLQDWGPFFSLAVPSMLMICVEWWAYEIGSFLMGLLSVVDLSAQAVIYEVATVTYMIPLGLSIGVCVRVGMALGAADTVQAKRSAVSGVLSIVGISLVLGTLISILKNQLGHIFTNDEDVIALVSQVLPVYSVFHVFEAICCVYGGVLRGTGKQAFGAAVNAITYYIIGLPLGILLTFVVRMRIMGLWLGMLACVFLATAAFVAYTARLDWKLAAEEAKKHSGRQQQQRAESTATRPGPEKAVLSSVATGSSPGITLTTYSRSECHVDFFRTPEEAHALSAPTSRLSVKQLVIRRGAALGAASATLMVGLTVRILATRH
# [6] = target: T4, human OCT1 (Homo sapiens, UniProt O15245); conditions: screen at 20 µM
# T4 sequence (O15245 1-554): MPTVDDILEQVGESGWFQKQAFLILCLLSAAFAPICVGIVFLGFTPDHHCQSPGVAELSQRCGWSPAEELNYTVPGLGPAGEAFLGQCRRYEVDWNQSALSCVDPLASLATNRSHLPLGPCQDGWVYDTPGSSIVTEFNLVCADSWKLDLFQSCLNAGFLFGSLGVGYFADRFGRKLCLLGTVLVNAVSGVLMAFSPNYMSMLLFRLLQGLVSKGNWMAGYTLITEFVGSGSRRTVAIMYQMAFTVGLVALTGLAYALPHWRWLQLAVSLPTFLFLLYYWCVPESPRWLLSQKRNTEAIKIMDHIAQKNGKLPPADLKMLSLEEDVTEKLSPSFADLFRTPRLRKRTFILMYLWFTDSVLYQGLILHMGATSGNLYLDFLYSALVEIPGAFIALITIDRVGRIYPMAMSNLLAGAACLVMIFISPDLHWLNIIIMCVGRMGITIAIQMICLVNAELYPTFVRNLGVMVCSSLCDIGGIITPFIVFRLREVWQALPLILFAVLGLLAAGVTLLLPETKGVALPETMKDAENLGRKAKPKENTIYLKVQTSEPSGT
smiles,measurement,setting,value
"CN(C)c1ccc(C=Cc2cc[n+](C)cc2)cc1 [ASP^+, 4-(4-(dimethylamino)styryl)-N-methylpyridinium]",Km,"[1]; read-out: Km of ASP+ transport, OCT2 specific uptake, HEK293 cells",36.4 ± 6.8 µM
CN/C(=N\CCSCc1nc[nH]c1C)NC#N [Cimetidine],inhibition of transporter activity,[2]; inhibitor 500 µM,complete inhibition of transporter activity
same,inhibition potency for MATE1 versus other transporters of the panel,[3],considerably higher inhibition potency for MATE1 than for the other transporters in the panel
same,inhibition of transporter activity,[3]; inhibitor 500 µM,complete inhibition of transporter activity
same,inhibition of OCT2 mediated transport,[1]; inhibitor 20 µM,partial
same,inhibition of OCT2 mediated transport,[1]; inhibitor 500 µM,complete inhibition of transporter activity
CC(C)N(CCC(C(N)=O)(c1ccccc1)c1ccccn1)C(C)C (stereo not drawn) [Disopyramide],"PB, plasma protein binding",[4],50%
CN(C)CCCN1c2ccccc2CCc2ccccc21 [Imipramine],affinity towards OCT2-A270S compared to reference protein,[2],lower affinity towards the genetic variant OCT2-A270S than to the reference protein
same,"PB, plasma protein binding",[4],90%
same,inhibition of renal OCT2 and MATE1 compared to hepatic OCT1,[1],preferential inhibition of the renal transporters OCT2 and MATE1 compared to the hepatic OCT1
Cc1nccn1CC1CCc2c(c3ccccc3n2C)C1=O (stereo not drawn) [Ondansetron],affinity towards OCT2-A270S compared to reference protein,[2],lower affinity towards the genetic variant OCT2-A270S than to the reference protein
same,inhibition potency for MATE1 versus other transporters of the panel,[3],considerably higher inhibition potency for MATE1 than for the other transporters in the panel
same,inhibition of renal OCT2 and MATE1 compared to hepatic OCT1,[1],preferential inhibition of the renal transporters OCT2 and MATE1 compared to the hepatic OCT1
same,inhibition of transporter activity,[5]; inhibitor 250 µM,complete inhibition of transporter activity
COc1cc(C(=O)NS(=O)(=O)c2ccccc2C)ccc1Cc1cn(C)c2ccc(NC(=O)OC3CCCC3)cc12 [zafirlukast],inhibition in specificity screen (MATE1),[3]; screen at 20 µM,showed affinity for all four organic cation transporters
same,inhibition in specificity screen (OCT1),[6],showed affinity for all four organic cation transporters
same,inhibition in specificity screen (OCT2),[1]; screen at 20 µM,showed affinity for all four organic cation transporters
same,inhibition in specificity screen (MATE2-K),[5]; screen at 20 µM,showed affinity for all four organic cation transporters
